The values that follow come from patent US20220372014A1, “NEUROPROTECTIVE COMPOUNDS AND METHODS OF USE THEREOF” (The Johns Hopkins University, priority 2019, published 2022).

The target in data set [1] is T1, MIF (Homo sapiens, UniProt P14174).
T1 sequence (P14174 1-115): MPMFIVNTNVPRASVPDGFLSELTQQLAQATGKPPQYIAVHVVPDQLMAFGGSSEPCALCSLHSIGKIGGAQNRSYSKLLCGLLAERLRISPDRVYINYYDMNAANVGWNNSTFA
Kind of data set: Nuclease assay of Example 3 (MIF inhibitory activity, Table 4). Conditions: nuclease assay of Example 3. It counts as biochemical. In a few lines: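 Human genomic DNA (200 ng), pcDNA (200 ng) or PS^30-type substrates (1 μM) were incubated with MIF (0.25-8 μM final) in 10 mM Tris-HCl pH 7.0, 10 mM MgCl2, 1 mM DTT at 37 °C for 1 h (pcDNA, small substrates) or 4 h (genomic DNA). Cleavage was assessed by agarose or PAGE electrophoresis with EtBr staining and chemiluminescent detection of biotin-labelled DNA.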

Data set [2] relates to primary cortical neurons. In words: α-syn PFF-induced cell death in mouse primary cortical neurons (Hoechst and PI staining). It counts as cell-based. Conditions: for α-syn PFF-induced cell death in mouse cortical neurons: pre-treated before α-syn PFF, Hoechst/PI; for toxicity when applied to primary cortical neurons: FIG. 12G. The method, then:
Cell culture, transfection, primary neuronal culture and treatment. SH-SY5Y cells (ATCC) were cultured in DMEM containing 10% fetal bovine serum and penicillin/streptomycin at 37° C. under 5% C02. The cells were transfected using PolyFect reagent (Qiagen). Parthanatos was induced by the treatment of 50 μM MNNG for 15 min in SH-SY5Y cells. ABT-888 or PAAN/MIF inhibitors were pretreated with indicated concentration 1 h before MNNG treatment and cell death were assessed after 24 h. Primary cortical neurons from WT, PAAN/MIF KO, E22Q KI or P1G KI embryos were prepared as previously described See Kam et al. (2018) Science 362:eaat8407. Briefly, the cortex was dissected and cultured at embryonic day 16 in neurobasal media supplemented with B-27, 0.5 mM L-glutamine, penicillin and streptomycin (Invitrogen). Primary neurons were infected with AAV2-control, AAV2-PAAN/MIF WT, AAV2-PAAN/MIF E22Q, AAV2-PAAN/MIF E22A or AAV2-MIF P1G (ViGene Biosciences) at days in vitro (DIV) 4-5. ABT-888 or PAAN/MIF inhibitors were applied to neurons 1 h before α-syn PFF treatment. The neuron growth medium was replaced with fresh medium alone or including inhibitors every 3-4 days. α-syn PFF was added at DIV 7 and further incubated for indicated times followed by the cell death assay or biochemical experiments.
Cell death and viability assessment. Primary cultured cortical neurons were treated with 5 μg/ml of α-syn PFF for 14 days and cell death was determined by staining of all nuclei with 7 μM Hoechst 33342 and dead cell nuclei with 2 μM propidium iodide (PI) (Invitrogen). The numbers of total and dead cells were counted with the Axiovision 4.6 software (Carl Zeiss). Cell viability was determined by fluorescence at an excitation wavelength 570 nm and an emission wavelength 585 nm using Alamar Blue (Invitrogen).

For data set [3], the target named is EcoRI (Escherichia coli, UniProt P00642). In words: In vitro nuclease assay of EcoRI (pcDNA3 substrate). The data set is classed as biochemical. The method, then:
(§1) Nuclease assay. Purified PAAN/MIF protein (4 μM) was incubated with compounds (10 μM) in the nuclease buffer [10 mM Tris-C1 (pH 7.0) and 10 mM MgCl2] for 20 m on ice. Then samples were added with 1 μM of PAAN/MIF substrate (PS30 or RF) and incubated for 1 h at 37° C. The reaction was terminated with loading buffer containing 10 mM EDTA and separated on 15% TBE-urea polyacrylamide (PAGE) gel or 20% TBE PAGE gel. For other nucleases (EcoRI and EcoRV) assays, pcDNA3 (500 ng/reaction) was used as a substrate and 0.01 unit of Exonulcase III were incubated with small dsDNA (Sequence ID NO 4:5′-[…]-3′ and Sequence ID NO 5:5′-[…]-3′).

In data set [4] the target is EcoRV (Escherichia coli, UniProt P04390). In words: In vitro nuclease assay of EcoRV (pcDNA3 substrate). The data set is classed as biochemical. Here is the method: as §1
Data set [5] deals with T2, PAAN/MIF tautomerase activity (Homo sapiens, UniProt P14174).
T2 construct: GST (N, cleaved yes); made in house; host or cells: Escherichia coli
T2 sequence (P14174 1-115): T1 sequence (P14174 1-115)
Kind of data set: Tautomerase activity assay (D-dopachrome methyl ester). The data set is classed as biochemical. The note with it: 10 μM compounds. Here is the method: Tautomerase activity assay. The keto-enol tautomeric conversion of D-dopachrome methyl ester by PAAN/MIF was used as described previously. See Bendraft et al. (1997) Biochemistry 36:15356-62. Briefly, a fresh solution of D-dopachrome methyl ester was prepared by mixing 2 mML-3,4 dihydroxyphenylalanine methyl ester with 4 mM sodium peroxidate for 5 m at room temperature and then placed directly on ice before use. The enzymatic reaction was initiated at 25° C. by adding 20 μl of the dopachrome methyl ester substrate to 200 μl of PAAN/MIF WT (final concentration 5 μM) with or without 10 μM compounds (compounds 41, 56, 76, and 77) in tautomerase assay buffer (50 mM potassium phosphate, 1 mM EDTA, pH 6.0). To enhance substrate stability, excess sodium meta-periodate was removed using […] disposable columns (Waters). The activity was determined by the decrease in absorbance at 475 nm using a spectrophotometer (Molecular Devices).

In data set [6] the target is ExoIII (Escherichia coli, UniProt P09030). Kind of data set: In vitro nuclease assay of ExoIII (18 bp double-strand DNA substrate). It counts as biochemical. The method, then: as §1

“Also recorded” adds a separate entry of the source.

Sequence of EcoRV (P04390 whole entry): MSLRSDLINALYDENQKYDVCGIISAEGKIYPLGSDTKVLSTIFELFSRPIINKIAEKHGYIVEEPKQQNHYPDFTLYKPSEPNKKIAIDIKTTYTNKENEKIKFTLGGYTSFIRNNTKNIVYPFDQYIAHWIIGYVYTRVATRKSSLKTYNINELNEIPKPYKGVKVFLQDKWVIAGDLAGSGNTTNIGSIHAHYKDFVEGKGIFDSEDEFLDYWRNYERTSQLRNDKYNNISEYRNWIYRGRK
Sequence of ExoIII (P09030 whole entry): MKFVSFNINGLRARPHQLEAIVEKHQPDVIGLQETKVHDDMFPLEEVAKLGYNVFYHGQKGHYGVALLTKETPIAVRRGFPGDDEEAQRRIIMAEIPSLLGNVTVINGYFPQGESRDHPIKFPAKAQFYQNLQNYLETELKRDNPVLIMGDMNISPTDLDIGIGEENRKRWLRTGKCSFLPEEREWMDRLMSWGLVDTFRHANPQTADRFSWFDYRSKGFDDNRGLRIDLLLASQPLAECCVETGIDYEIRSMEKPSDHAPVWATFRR
Sequence of EcoRI (P00642 whole entry): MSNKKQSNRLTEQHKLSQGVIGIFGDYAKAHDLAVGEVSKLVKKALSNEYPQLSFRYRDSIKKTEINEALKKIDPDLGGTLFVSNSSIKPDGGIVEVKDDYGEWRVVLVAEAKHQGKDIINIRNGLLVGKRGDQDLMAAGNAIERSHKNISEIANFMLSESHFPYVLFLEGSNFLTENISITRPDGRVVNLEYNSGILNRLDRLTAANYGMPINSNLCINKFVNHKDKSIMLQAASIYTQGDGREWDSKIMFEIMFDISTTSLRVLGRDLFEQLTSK

Take `COc1ccc(CC[C@H]2OC(=O)[C@@H]3CCCCN3C(=O)C(=O)C(C)(C)COC(=O)C=CCCN(C)C(=O)[C@@H]3CCCN3C(=O)[C@H](COC(C)(C)C)N(C)C(=O)C(c3ccccc3)NC(=O)[C@H](C)N(C)C(=O)COc3cc(F)cc2c3)cc1OC` (mixture of isomers) [compound 121]: the “(%) inhibition of MIF nuclease activity” value in data set [1] is recorded as 71.2%. Further, the “α-syn PFF-induced cell death in mouse cortical neurons” value (from here on “α-syn PFF-induced cell death”) in data set [2] is “protected”.

`COc1ccc(CC[C@H]2OC(=O)[C@@H]3CCCCN3C(=O)C(=O)C(C)(C)COC(=O)C=CCCN(C)C(=O)[C@@H]3CCCN3C(=O)[C@H](COC(C)(C)C)N(C)C(=O)C(c3ccccc3)NC(=O)CN(C)C(=O)COc3cccc2c3)cc1OC` (stereo partly shown) [compound 41]: the “nuclease activity of EcoRI” value in data set [3] was “do not inhibit”. Further, the “nuclease activity of EcoRV” value in data set [4] is recorded as “do not inhibit”. The “MIF's tautomerase activity” value in data set [5] was “Neither did they inhibit”. For the same compound, the “(%) inhibition of MIF nuclease activity” value in data set [1] is reported as 82.0%. For the same compound, the “nuclease activity of ExoIII” value in data set [6] was “do not inhibit”. For the same compound, in data set [2], the “toxicity when applied to primary cortical neurons” value was “some toxicity” and the “α-syn PFF-induced cell death” value is listed as “attenuated”.

On to `COc1ccc(CC[C@H]2OC(=O)[C@@H]3CCCCN3C(=O)C(=O)C(C)(C)COC(=O)C=CCCN(C)C(=O)[C@@H]3CCCN3C(=O)[C@H](COC(C)(C)C)N(C)C(=O)C(c3ccccc3)NC(=O)[C@H](C)N(C)C(=O)COc3cccc2c3)cc1OC` (stereo partly shown) [compound 56], for which the “nuclease activity of EcoRI” value in data set [3] is given as “do not inhibit”. In addition, the “nuclease activity of EcoRV” value in data set [4] is “do not inhibit”. Besides, the “MIF's tautomerase activity” value in data set [5] is “Neither did they inhibit”. For the same compound, in data set [1], the “(%) inhibition of MIF nuclease activity” value was found to be 70.8%. Besides, the “nuclease activity of ExoIII” value in data set [6] was “do not inhibit”. The “α-syn PFF-induced cell death” value in data set [2] is on record as “attenuated; also recorded: protected”.

Consider `COc1ccc(CC[C@H]2OC(=O)[C@@H]3CCCCN3C(=O)C(=O)C(C)(C)COC(=O)C=CCCN(C)C(=O)CNC(=O)[C@H](C(C)C)N(C)C(=O)[C@@H](Cc3ccccc3)NC(=O)[C@H](CC(C)C)N(C)C(=O)CCC(=O)Nc3cccc2c3)cc1OC` [compound 76], for which, in data set [3], the “nuclease activity of EcoRI” value is “do not inhibit”. Besides, the “nuclease activity of EcoRV” value in data set [4] is listed as “do not inhibit”. Moreover, the “MIF's tautomerase activity” value in data set [5] is listed as “Neither did they inhibit”. Besides, in data set [1], the “(%) inhibition of MIF nuclease activity” value is on record as 73.5%. The “nuclease activity of ExoIII” value in data set [6] is listed as “do not inhibit”. Further, the “toxicity when applied to primary cortical neurons” value in data set [2] was “some toxicity”.

On to `COc1ccc(CC[C@H]2OC(=O)[C@@H]3CCCCN3C(=O)C(=O)C(C)(C)COC(=O)C=CCCN(C)C(=O)[C@H](C)NC(=O)[C@H](C(C)C)N(C)C(=O)[C@@H](Cc3ccccc3)NC(=O)[C@H](CC(C)C)N(C)C(=O)CCC(=O)Nc3cccc2c3)cc1OC` [compound 77], for which the “nuclease activity of EcoRI” value in data set [3] was “do not inhibit”. Besides, the “nuclease activity of EcoRV” value in data set [4] is “do not inhibit”. Also, the “MIF's tautomerase activity” value in data set [5] was “Neither did they inhibit”. Further, the “(%) inhibition of MIF nuclease activity” value in data set [1] was found to be 75.5%. Moreover, the “nuclease activity of ExoIII” value in data set [6] was “do not inhibit”. Further, the “α-syn PFF-induced cell death” value in data set [2] is “attenuated”.

As to `COc1ccc(CC[C@H]2OC(=O)[C@@H]3CCCCN3C(=O)C(=O)C(C)(C)COC(=O)C=CCCN(C)C(=O)[C@@H]3CCCN3C(=O)[C@H](CO)N(C)C(=O)C(c3ccccc3)NC(=O)[C@H](C)N(C)C(=O)COc3cccc2c3)cc1OC` (stereo partly shown) [compound 97], the “(%) inhibition of MIF nuclease activity” value in data set [1] is listed as −5.3%.
